pIC50: −log10 of the molar value.
Columns and labels:
[1] = test system: glioma stem cells (GSC2-GFP, U87MG SLC-GFP) co-cultured with normal human astrocytes (HA); assay: Flow cytometry of co-culture model (GSC2-GFP or U87MG SLC-GFP + HA-RFP); assay type: cell-based; settings: 24 hours, 1-30 μM; compared with normal human astrocytes
Procedure: 6-well and 96-well cell culture plates were pre-coated with 100 μg/mL poly-lysine at 37° C. overnight, followed by washing twice with saline and allowing to air-dry. GSC2-GFP cells stably expressing green fluorescence and HA cells stably expressing red fluorescence were digested into single cell, and resuspended in fresh culture medium, counted and diluted to 5×10^4 cells/mL. Then, the two types of cells were mixed well at a ratio of 1:1, divided into five tubes. Clofoctol were added in each tube and mixed well, so that the concentrations of clofoctol were 0 μM, 1 μM, 3 μM, 10 μM, 30 μM, respectively. The resulting mixtures were added to a 6-well cell culture plate (2 mL) and a 96-well cell culture plate (100 μL, 3 replicate wells per group) respectively for 24 hours, before the MTS assay was used to detect the cell activity of each treatment group in the 96-well cell culture plate. The cells in the 6-well cell culture plates were collected separately, washed twice with PBS, and resuspended with 100 μL respectively. The proportion of GSC2-GFP and HA-RFP in the viable cells of each treatment group was analyzed by flow cytometry. Considering the changes in cell activity after medicament treatment of the co-culture model, the relative cell viability of each cell component in the co-culture model was statistically analyzed. […]

[2] = test system: glioma stem cells (U87MG SLC, U251 SLC, GSC2, GSC5); assay: Detection of cell viability by MTS assay; assay type: cell-based, human
Excerpt: “MTS assay”: a colorimetric method for determining the number of viable cells in proliferation assays and cytotoxicity assays. MTS is a novel tetrazolium compound. PMS is an electron coupling reagent with enhanced chemical stability, which forms a stable solution when mixed with MTS. MTS can be reduced by cellular organisms to generate a colored formazan product that is soluble in culture media. This conversion is thought to be carried out by NAD(P)H-dependent dehydrogenase enzymes in metabolically active cells. The amount of the formazan product, which is quantified at 490 nm, is proportional to the number of viable cells in culture.
“The relative cell viability”: after the detection of the value of absorbance by above MTS assay, the relative cell viability is calculated based on the value of absorbance (A). […]
(2) In order to detect the effect of clofoctol on cell viability of glioma stem cells, the experiment was carried out using a 96-well cell culture plate which is coated with 100 μg/mL poly-lysine overnight, wherein the plate was washed twice next day with saline, and allowed to dry until use. The cells were digested, resuspended as a single cell suspension, counted and seeded on a 96-well cell culture plate (U87MG SLC (5000 cells/well), U251 SLC (10000 cells/well), GSC2 (10000 cells/well), GSC5 (10000 cells/well)), allowed to grow overnight. […]

[3] = test system: glioma stem cells (GSC5; FIG. 6 legend: GSC2); assay: Recovery assay (MTS after removal of medicament); assay type: cell-based, human; settings: 24 or 48 hours treatment, then 48 hours in fresh medium
Procedure: (1) The 96-well cell culture plate was coated with 100 μg/mL poly-lysine.
(2) GSC5 was digested into single cell using ACCUTASE enzyme, resuspended in fresh Neurobasal culture medium, and the cells were then plated on the pre-coated 96-well cell culture plates overnight;
(3) clofoctol was added, the concentration of which were 0.03 μM, 0.1 μM, 0.3 μM, 1 μM, 3 μM, 10 μM and 30 μM, 9 replicate wells for each concentration;
(4) after 24 hours of treatment, 20 μL MTS/PMS mixed reagent was added to 3 replicate wells of each concentration to measure the cell activity. The medicament-containing medium in the other 6 replicate wells was removed, fresh medium was added to 3 of the 6 replicate wells, and medium containing the same concentration of clofoctol was added to the rest 3 replicate wells;
(5) after 48 hours of incubation, cell activity was detected by MTS assay.
After 48 hours of medicament treatment, the cells were restored for 48 hours and then detected, the steps are as above.

GSC2 subcutaneous tumors = assay: Subcutaneous GSC2 xenograft at armpits of nude mice; assay type: in vivo, Balb/C nude mice; settings: 20 mg/kg, intraperitoneal injection, 11 days
Procedure: Subcutaneous tumorigenesis at armpits of nude mice: after centrifugation and digestion, GSC2 single cell re-suspended in PBS was subcutaneously inoculated into the armpits of 15 Balb/C nude mice of 5 weeks old. The inoculation number of the cells was 10^5 cells/mouse. The tumor size of nude mice was recorded (tumor size in nude mice=length*width^2/2). When the subcutaneous tumors in nude mice reached about 100 mm^3, they were divided into DMSO group and clofoctol administration group. The dose administered was 20 mg/kg, the mice were administered by intraperitoneal injection for a period of 11 days. The changes in tumor size and the body weight in two groups of nude mice were recorded.

GSC2 tumorspheres = assay: Experiment of tumorsphere formation; assay type: cell-based, human
Procedure: After coating the 96-well cell culture dish, 100 μL single cell suspension containing 5000 GSC2 was added to each well. After 4 days of natural growth, the original medium was removed, and 100 μL fresh culture containing various concentrations of clofoctol was added to each well. The medicament concentrations were 0.03 μM, 0.1 μM, 0.3 μM, 1 μM, 3 μM, 10 μM and 30 μM, respectively. After 48 hours of medicament treatment, the morphological changes of the tumorspheres in each treatment group were observed under the microscope, and the number of tumorspheres in each treatment group was also counted.

GSC5 = assay: Limited dilution experiment (self-renewal); assay type: cell-based, human; settings: GSC5, 1 μM, 3 μM and 10 μM, 2 weeks
Procedure: (1) The cells of GSC5 tumorspheres in suspension culture were collected into a 15 mL centrifuge tube, 0.5 mL of ACCUTASE enzyme (purchased from sigma) was added, and the cells were digested at 37° C. for 5 minutes. Then the cells were pipetted to single cell and the supernatant was removed after centrifugation;
(2) Fresh Neurobasal culture medium (purchased from gibco) was added. A portion of the cells were taken for trypan blue staining, followed by cell counting.
(3) After calculating the desired volume of cell culture medium, the cell concentration gradient of 200, 100, 50, 25 cells/well was set, and 10 replicate wells for each concentration were set. The DMSO control group and medicament treatment group with 0 μM, 1 μM, 3 μM and 10 μM of clofoctol were set.
(4) The cells were seeded in a 96-well plate at 100 and cultured in an incubator at 37° C., 5% CO2, 2 weeks later the proportion of the well without tumorsphere was counted;

U87MG SLC-GFP xenograft = assay: Administration to zebrafish glioma xenograft model; assay type: in vivo; settings: 10 μM in hatching solution, 48 hours
Procedure: 3000 green-fluorescent-labeled U87MG SLC-GFP were injected into the yolk sac of the 48-hour zebrafish embryo. After 48 hours of natural growth, fluorescence microscopy was used to detect the tumorigenesis in zebrafish. And then clofoctol at a concentration of 10 μM was added to the zebrafish hatching solution. After 48 hours of medicament treatment, the green fluorescence intensity of zebrafish yolk sac was detected by fluorescence microscopy to determine the in vivo inhibitory effect of clofoctol on tumors in zebrafish xenograft models.

GSC2 [4] = assay: Annexin V/PI counterstaining for the detection of apoptosis; assay type: cell-based, human; settings: GSC2, 1-30 μM, 12 hours or 24 hours
Procedure: (1) GSC2 were treated with clofoctol at the concentrations of 1 μM, 3 μM, 10 μM, 30 μM for 12 hours or 24 hours;
(2) the cells were collected and washed twice with PBS;
(3) the cells were resuspended with 50 μL 1*binding buffer with the cell density of about 1*10^6 cells/mL;
(4) 2.5 μL FITC Annexin V and 2.5 μL PI were added;
(5) incubating for 15 min at room temperature in the darkness;
(6) 200 μL of 1*binding buffer was added to the system, and the cells in each treatment tube was passed through the cell strainer;
(7) flow cytometry analysis;
The Annexin V/PI counterstaining kit used was purchased from BD pharmingen with the product lot number 556547.

GSC2 [5] = assay: In situ tumorigenesis in nude mice of pretreated GSC2; assay type: in vivo, Balb/C nude mice
Procedure: The cells were collected after 24 hours of pre-treatment with clofoctol at a concentration of 30 μM, washed twice with PBS, and a portion of the cells were subjected to trypan blue staining and cell counting. The cells were injected in situ into the intracranial striatum of Balb/C nude mice aged 5-7 weeks, at 10^5 cells/mouse, 5 mice each group, and a DMSO control group was set.

CC(C)(C)CC(C)(C)c1ccc(O)c(Cc2ccc(Cl)cc2Cl)c1 [clofoctol, 2-[(2,4-dichlorophenyl)methyl]-4-(2,4,4-trimethylpentan-2-yl)phenol]
relative cell viability of each cell component in the co-culture model [1]: specifically inhibits the cell activity of glioma stem cells in the co-culture model
cell activity of glioma stem cells (MTS, FIG. 1) ([2]; 48 hours, 0.3-30 μM, compared with glioma cells and normal human cell lines): specifically inhibits the cell activity of glioma stem cells
pIC50 ([2]; Homo sapiens, four glioma stem cell strains (U87MG SLC, U251 SLC, GSC2, GSC5), after 48 hours treatment): 4.98 to 5.12
reversibility of the effect on glioma stem cells after removal of medicament [3]: irreversible to some extent
side effects (body weight) (GSC2 subcutaneous tumors): side effects were small
tumor growth (tumor size) (GSC2 subcutaneous tumors): significantly inhibits tumor growth
morphology of tumorspheres at low concentrations (GSC2 tumorspheres; GSC2, 0.03 μM, 0.1 μM, 48 hours): grow protuberances and exhibit clear differentiation-like characteristics
morphology of tumorspheres at high concentrations (GSC2 tumorspheres; GSC2, 10 μM, 30 μM, 48 hours): caused the death of marginal cells of tumorspheres
size and number of tumorspheres (GSC2 tumorspheres; GSC2, 48 hours, 0.03-30 μM): significantly reduce the size and number of tumorspheres
formation of glioma stem cell clones (self-renewal ability) (GSC5): significantly inhibits the formation of glioma stem cell clones
in vivo tumor growth (green fluorescence intensity of yolk sac) (U87MG SLC-GFP xenograft): significantly inhibits the in vivo tumor growth
apoptosis in glioma stem cells (GSC2 [4]): can induce apoptosis in glioma stem cells
in situ tumorigenesis (mice with tumor / mice injected) (GSC2 [5]; GSC2 pretreated 24 hours at 30 μM, 1 * 10^5 cells/mouse, intracranial striatum): 0/5
ability of in situ tumorigenesis in nude mice (GSC2 [5]; pretreatment of GSC2 at 30 μM for 24 hours): significantly inhibits its ability of in situ tumorigenesis in nude mice

Reference: patent publication US10987318B2, “Application of clofoctol for manufacturing pharmaceutical product for treating human neuroglioma” (INSTITUTE OF BASIC MEDICAL SCIENCES, CHINESE ACADEMY OF …, priority 2016, dated 2021)
